This note sets out measurements from ChEMBL document CHEMBL1127727, “Synthesis and structure-activity relationships of novel retinoid X receptor-selective retinoids” (J Med Chem, 1994).

Structures are written as SMILES. Some results are limits rather than exact numbers.

Experiment [1] concerns the target T1, Retinoic acid receptor gamma (Homo sapiens, UniProt P13631).
T1 sequence (P13631 whole entry): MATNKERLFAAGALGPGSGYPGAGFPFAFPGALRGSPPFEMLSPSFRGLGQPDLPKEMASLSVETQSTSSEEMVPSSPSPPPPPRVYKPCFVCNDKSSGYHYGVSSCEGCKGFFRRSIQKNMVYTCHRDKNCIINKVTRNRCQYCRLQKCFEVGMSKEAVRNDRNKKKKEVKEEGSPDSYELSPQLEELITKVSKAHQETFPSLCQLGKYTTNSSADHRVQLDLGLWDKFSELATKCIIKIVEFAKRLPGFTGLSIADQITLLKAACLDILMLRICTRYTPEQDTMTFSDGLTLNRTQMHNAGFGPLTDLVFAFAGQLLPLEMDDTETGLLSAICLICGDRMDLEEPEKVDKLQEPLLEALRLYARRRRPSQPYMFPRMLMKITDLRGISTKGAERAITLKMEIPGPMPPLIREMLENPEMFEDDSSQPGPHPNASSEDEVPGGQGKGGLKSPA
As to the kind of experiment: Effective concentration against retinoid receptor isoform (RAR gamma) expressed in CV-1 cells. Format: cell-based.

Experiment [2] deals with T2, Retinoic acid receptor alpha (Homo sapiens, UniProt P10276).
T2 sequence (P10276 whole entry): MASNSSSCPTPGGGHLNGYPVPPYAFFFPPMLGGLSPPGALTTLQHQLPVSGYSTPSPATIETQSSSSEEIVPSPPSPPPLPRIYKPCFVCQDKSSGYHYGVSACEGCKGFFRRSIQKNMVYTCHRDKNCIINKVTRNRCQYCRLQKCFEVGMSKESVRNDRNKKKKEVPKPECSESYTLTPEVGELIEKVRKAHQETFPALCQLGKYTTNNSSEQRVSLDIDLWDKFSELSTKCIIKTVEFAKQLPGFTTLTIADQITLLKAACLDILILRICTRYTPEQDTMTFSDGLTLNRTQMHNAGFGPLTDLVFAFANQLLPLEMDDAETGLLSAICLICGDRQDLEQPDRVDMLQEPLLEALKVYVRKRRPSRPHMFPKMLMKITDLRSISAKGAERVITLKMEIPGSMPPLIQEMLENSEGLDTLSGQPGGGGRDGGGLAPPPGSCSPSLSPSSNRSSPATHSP
Put plainly: Effective concentration against retinoid receptor isoform (RAR alpha) expressed in CV-1 cells. Type of experiment: cell-based.

Experiment [3] has as its target T3, Retinoic acid receptor RXR-gamma (Mus musculus, UniProt P28705).
T3 sequence (P28705 whole entry): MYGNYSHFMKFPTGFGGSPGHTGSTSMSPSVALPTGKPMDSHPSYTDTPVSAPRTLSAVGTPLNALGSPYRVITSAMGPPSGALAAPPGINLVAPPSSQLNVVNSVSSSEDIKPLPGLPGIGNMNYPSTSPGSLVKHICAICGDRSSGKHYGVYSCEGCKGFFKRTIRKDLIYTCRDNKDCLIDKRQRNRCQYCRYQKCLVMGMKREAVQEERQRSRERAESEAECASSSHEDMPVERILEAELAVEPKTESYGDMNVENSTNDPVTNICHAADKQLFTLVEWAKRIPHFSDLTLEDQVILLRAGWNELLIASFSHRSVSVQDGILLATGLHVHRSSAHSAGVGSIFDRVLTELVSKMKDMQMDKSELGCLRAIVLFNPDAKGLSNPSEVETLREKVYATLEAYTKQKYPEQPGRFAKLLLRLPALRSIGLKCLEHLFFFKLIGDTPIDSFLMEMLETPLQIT
As to the kind of experiment: Inhibition of [3H]9-cis-RA binding to baculovirus expressed retinoid receptor RXR gamma.

The target in experiment [4] is T2, Retinoic acid receptor alpha. As to the kind of experiment: Inhibition of [3H]-ATRA binding to baculovirus expressed retinoid receptor RAR alpha.
Experiment [5] addresses T1, Retinoic acid receptor gamma. As to the kind of experiment: Tested for binding affinity against [3H]-ATRA binding to retinoid receptor isoform (RAR gamma) expressed in baculovirus.
For experiment [6], the target named is T4, Retinoic acid receptor RXR-alpha (Homo sapiens, UniProt P19793).
T4 sequence (P19793 whole entry): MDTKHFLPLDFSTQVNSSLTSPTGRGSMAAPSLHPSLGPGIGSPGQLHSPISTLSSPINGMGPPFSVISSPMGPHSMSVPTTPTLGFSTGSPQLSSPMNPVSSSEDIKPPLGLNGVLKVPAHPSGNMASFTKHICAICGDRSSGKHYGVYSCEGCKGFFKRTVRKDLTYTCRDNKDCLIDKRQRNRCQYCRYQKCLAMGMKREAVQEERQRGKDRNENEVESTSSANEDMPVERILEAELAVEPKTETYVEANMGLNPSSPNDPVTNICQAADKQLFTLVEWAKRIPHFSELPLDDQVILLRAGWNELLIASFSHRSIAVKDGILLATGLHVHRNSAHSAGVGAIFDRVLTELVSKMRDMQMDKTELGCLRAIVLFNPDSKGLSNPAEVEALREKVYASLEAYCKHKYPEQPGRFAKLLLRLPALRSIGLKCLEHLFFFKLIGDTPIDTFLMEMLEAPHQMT
Description: Inhibition of [3H]9-cis-RA binding to baculovirus expressed retinoid receptor RXR alpha

Experiment [7] has as its target T5, Retinoic acid receptor RXR-beta (Mus musculus, UniProt P28704).
T5 sequence (P28704 whole entry): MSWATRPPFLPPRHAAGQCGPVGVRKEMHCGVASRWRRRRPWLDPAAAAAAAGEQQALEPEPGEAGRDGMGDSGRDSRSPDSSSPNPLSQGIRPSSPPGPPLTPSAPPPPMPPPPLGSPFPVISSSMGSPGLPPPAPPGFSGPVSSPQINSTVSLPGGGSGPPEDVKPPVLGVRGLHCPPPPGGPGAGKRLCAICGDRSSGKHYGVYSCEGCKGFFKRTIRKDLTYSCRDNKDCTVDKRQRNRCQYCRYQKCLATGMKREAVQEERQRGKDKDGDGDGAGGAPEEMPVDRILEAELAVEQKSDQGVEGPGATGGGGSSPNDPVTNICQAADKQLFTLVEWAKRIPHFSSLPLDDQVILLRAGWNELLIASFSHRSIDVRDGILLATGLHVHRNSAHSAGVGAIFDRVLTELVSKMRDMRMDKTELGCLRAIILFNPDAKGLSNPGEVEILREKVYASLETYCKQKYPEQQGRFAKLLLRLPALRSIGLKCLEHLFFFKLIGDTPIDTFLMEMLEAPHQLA
Put plainly: Effective concentration against retinoid receptor isoform (RXR beta) expressed in CV-1 cells. Format: cell-based.

The target in experiment [8] is T6, Retinoic acid receptor beta (Homo sapiens, UniProt P10826).
T6 sequence (P10826 whole entry): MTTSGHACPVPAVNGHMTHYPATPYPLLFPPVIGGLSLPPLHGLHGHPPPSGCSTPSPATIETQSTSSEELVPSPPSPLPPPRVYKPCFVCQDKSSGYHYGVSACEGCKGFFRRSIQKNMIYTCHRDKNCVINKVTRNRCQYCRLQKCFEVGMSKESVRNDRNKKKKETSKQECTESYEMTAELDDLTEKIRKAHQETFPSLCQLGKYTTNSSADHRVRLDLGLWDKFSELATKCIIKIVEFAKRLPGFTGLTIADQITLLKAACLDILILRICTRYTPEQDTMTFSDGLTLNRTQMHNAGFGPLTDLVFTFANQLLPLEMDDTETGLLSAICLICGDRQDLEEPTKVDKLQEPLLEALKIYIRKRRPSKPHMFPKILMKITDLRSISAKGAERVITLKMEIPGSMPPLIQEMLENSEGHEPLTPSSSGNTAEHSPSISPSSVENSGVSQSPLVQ
Put plainly: Effective concentration against retinoid receptor isoform (RAR beta) expressed in CV-1 cells. Type of experiment: cell-based.

The target of experiment [9] is T3, Retinoic acid receptor RXR-gamma. Put plainly: Effective concentration against retinoid receptor isoform (RXR gamma) expressed in CV-1 cells. Type of experiment: cell-based.
The target in experiment [10] is T6, Retinoic acid receptor beta. Put plainly: Inhibition of [3H]ATRA binding to baculovirus expressed retinoid receptor RAR beta.
Experiment [11] concerns the target T5, Retinoic acid receptor RXR-beta. Put plainly: Inhibition of [3H]9-cis-RA binding to baculovirus expressed retinoid receptor RXR beta.
Experiment [12] has as its target T4, Retinoic acid receptor RXR-alpha. This is another data set of the same source.
Description: Effective concentration against retinoid receptor isoform (RXR alpha) expressed in CV-1 cells

For `C=C(c1ccc(C(=O)O)cc1)c1cc2c(cc1CCC)C(C)(C)CCC2(C)C`, the EC50 in [1], in experiment [2], in experiment [7], in [8], in experiment [9] and in experiment [12] was more than 10000 nM throughout. The Kd (usually the free concentration of one partner at which half of the binding sites on the other are occupied at equilibrium, for simple one-to-one binding) was 332 nM in experiment [3]; more than 1000 nM in [4]; more than 1000 nM in experiment [5]; 137 nM in experiment [6]; more than 1000 nM in experiment [10]; 236 nM in [11].
As to `CC(C)c1cc2c(cc1C(=O)c1ccc(C(=O)O)cc1)C(C)(C)CCC2(C)C`, the concentration for a half-maximal effect (EC50) (as a rule, the concentration needed to bring the measured effect to its halfway point) in [1] is more than 10000 nM; in experiment [2], more than 10000 nM; in experiment [7], 313 nM; in experiment [8], more than 10000 nM; in experiment [9], 357 nM; in experiment [12] it was 381 nM. In addition, the Kd is 309 nM in experiment [3]; more than 1000 nM in experiment [4]; more than 1000 nM in experiment [5]; 113 nM in experiment [6]; more than 1000 nM in experiment [10]; 155 nM in experiment [11].
In the case of `CC1(C)CCC(C)(C)c2cc(C(=O)c3ccc(C(=O)O)cc3)c(Br)cc21`, the EC50 in experiment [1] is more than 10000 nM; in experiment [2], more than 10000 nM; in experiment [7] it was 120 nM; in experiment [8] it was more than 10000 nM; in experiment [9], 261 nM; in experiment [12], 332 nM. In addition, the Kd in experiment [3] was 150 nM; in experiment [4] it was more than 1000 nM; in experiment [5], more than 1000 nM; in experiment [6], 105 nM; in experiment [10], more than 1000 nM; in experiment [11] it was 150 nM.
Turning to `CC1(C)CCC(C)(C)c2cc(C(=O)c3ccc(C(=O)O)cc3)c(Cl)cc21`, the EC50 in experiment [1] was more than 10000 nM; in experiment [2], more than 10000 nM; in experiment [7] it was 262 nM; in experiment [8], more than 10000 nM; in experiment [9], 225 nM; in [12], 294 nM. Besides, the Kd was 135 nM in experiment [3]; more than 1000 nM in [4]; more than 1000 nM in [5]; 130 nM in [6]; more than 1000 nM in [10]; 110 nM in experiment [11].
Turning to `COc1cc2c(cc1C(=O)c1ccc(C(=O)O)cc1)C(C)(C)CCC2(C)C`, the 50% effective concentration (EC50) was more than 10000 nM in experiment [1]; more than 10000 nM in experiment [2]; 2200 nM in experiment [7]; more than 10000 nM in experiment [8]; 2190 nM in experiment [9]; 2020 nM in experiment [12]. Moreover, the equilibrium dissociation constant (Kd) in experiment [3], in [4], in experiment [5], in experiment [6], in experiment [10] and in experiment [11] was more than 1000 nM in each case.
Turning to `CC1(C)CCC(C)(C)c2cc(C(=O)c3ccc(C(=O)O)cc3)c(F)cc21`, the EC50 in experiment [1] stood at 1020 nM; in experiment [2], 2860 nM; in experiment [7], 1980 nM; in experiment [8], 395 nM; in experiment [9], 2250 nM; in experiment [12] it was 1820 nM. In addition, the equilibrium dissociation constant (Kd) in experiment [3] was 911 nM; in experiment [4], more than 1000 nM; in experiment [5], more than 1000 nM; in experiment [6] it was 706 nM; in experiment [10] it was more than 1000 nM; in experiment [11], 902 nM.
For the molecule `C=C(c1ccc(C(=O)O)cc1)c1ccc2c(c1)C(C)(C)CCC2(C)C`, the EC50 in experiment [1] was 266 nM; in experiment [2], more than 10000 nM; in experiment [7] it was 486 nM; in experiment [8], 304 nM; in experiment [9], 404 nM; in [12] it was 409 nM. Further, the Kd in [3] turned out to be 290 nM; in experiment [4] it was 944 nM; in experiment [5], 887 nM; in [6] it was 150 nM; in [10], 909 nM; in experiment [11] it was 199 nM.
Take `CCc1cc2c(cc1C(=O)c1ccc(C(=O)O)cc1)C(C)(C)CCC2(C)C`: the concentration for a half-maximal effect (EC50) was more than 10000 nM in experiment [1]; more than 10000 nM in [2]; 810 nM in experiment [7]; more than 10000 nM in experiment [8]; 384 nM in experiment [9]; 514 nM in [12]. Also, the Kd in experiment [3] was 424 nM; in experiment [4] it was more than 1000 nM; in experiment [5], more than 1000 nM; in experiment [6], 195 nM; in experiment [10], more than 1000 nM; in [11], 232 nM.
Regarding `CCCc1cc2c(cc1C(=O)c1ccc(C(=O)O)cc1)C(C)(C)CCC2(C)C`, the EC50 in experiment [1], in [2], in [7], in [8], in experiment [9] and in experiment [12] was more than 10000 nM throughout. In addition, the equilibrium dissociation constant (Kd) in experiment [3] is 704 nM; in experiment [4], more than 1000 nM; in [5], more than 1000 nM; in [6], 269 nM; in [10], more than 1000 nM; in experiment [11], 371 nM.
For the molecule `C=C(c1ccc(C(=O)O)cc1)c1cc2c(cc1C(C)C)C(C)(C)CCC2(C)C`, the EC50 is more than 10000 nM in experiment [1]; more than 10000 nM in experiment [2]; 289 nM in [7]; more than 10000 nM in experiment [8]; 227 nM in [9]; 207 nM in experiment [12]. For the same molecule, the Kd in [3] was 142 nM; in experiment [4], more than 1000 nM; in [5] it was more than 1000 nM; in [6], 55 nM; in [10], more than 1000 nM; in experiment [11] it was 75 nM.
